Measured values taken from patent publication EP0655506B1 (priority 1994, dated 1995).
Where two headings read alike, the source gives them in different places.

Experiments:
[1] = target: T1, T7 DNA polymerase (28 amino acid deletion in the exonuclease domain, complexed with thioredoxin) (Escherichia phage T7, UniProt P00581, DEL118-145); assay: Inhibition of DNA synthesis on synthetic Primer-Template A, competition of dATP and ddATP (Example 9); format: biochemical, bacteriophage T7; settings: in the presence of 10 µM dATP, 37°C, read-out: [ddATP] for 50% inhibition
T1 construct: made in house; host or cells: strain that produces E. coli thioredoxin (lac promoter)
Description: (§1) In this example the competition between a dNTP and a ddNTP is assayed for use at a single site in a synthetic primer-template. This assay differs from the others in that it limits the comparison of the use of the two substrates to a single site, avoiding the complication of sequence-specific variability in discrimination. […]
(§2) Each reaction mixture contains 25 pmoles each of primer and template. […] The mixtures are incubated at 37°C for 1 min (70°C for thermophilic DNA polymerases), and the reactions are initiated by the addition of 5 µl aliquots (0.01 to 1 unit) of the DNA polymerase being analyzed diluted in 20 mM TrisHCl, pH 7.5, 10 mM 2-mercaptoethanol and 0.05% bovine serum albumin. […] The disks are then dried under a heat lamp and counted in a scintillation counter in 5 ml of fluor (Opti-Fluor O, Packard). From the amount of radioactivity on each disk, the amount […] incorporated was determined. […]
(§3) All reactions are carried out with a constant amount of the DNA polymerase being analyzed; the amount of DNA polymerase should be sufficient to replicate 50% of the total dCMP residues in the single-stranded region of the template in the 10 min incubation in the presence of 10 µM dATP and the absence of ddATP. […]

[2] = target: T2, T7 DNA polymerase Y526F (Escherichia phage T7, UniProt P00581, DEL118-145/Y526F); assay: as above; format: biochemical, bacteriophage T7; settings: in the presence of 10 µM dATP, 37°C, read-out: [ddATP] for 50% inhibition
T2 construct: made in house; host or cells: strain that produces E. coli thioredoxin (lac promoter)
Description: as §1, §2, §3

[3] = target: T7 DNA polymerase (Escherichia phage T7, UniProt P00581); settings: '(for ddATP)' stands at the end of the sentence, cited from earlier work

Nc1ncnc2c1ncn2[C@H]1CC[C@@H](COP(=O)(O)OP(=O)(O)OP(=O)(O)O)O1 [ddATP]
IC50 [1]: ~30 µM | IC50 [2]: > 500 µM | discrimination ([3]; in the presence of manganese): 1 | discrimination ([3]; magnesium): 3.7
